Data set [1] deals with Mus musculus. Briefly: Neurotoxicity against Mus musculus Swiss albino (mouse) assessed as inability to maintain equilibrium on rod at 30 to 300 mg/kg, ip measured after 0.5 hr by rotarod test. As to conditions: in vivo. It counts as toxicity, organism-based. Further details: dose 30-300 mg/kg, route intraperitoneal. A general note: The rotarod test checks motor coordination on a turning rod.

For data set [2], the system named is Mus musculus. Briefly: Anticonvulsant activity in Mus musculus Swiss albino (mouse) assessed as reduction in maximal electroshock-induced seizure at 100 mg/kg, ip measured after 4 hr. Format: functional, organism-based. Set-up: dose 100 mg/kg. (Protection in the maximal electroshock model is a classic sign of anticonvulsant action.)
Data set [3] has as its system Mus musculus. Put plainly: Anticonvulsant activity in Mus musculus Swiss albino (mouse) assessed as reduction in maximal electroshock-induced seizure at 300 mg/kg, ip measured after 0.5 hr. Format: functional, organism-based. Set-up: dose 300 mg/kg.
Data set [4] has as its system Mus musculus. Put plainly: Anticonvulsant activity in Mus musculus Swiss albino (mouse) assessed as reduction in maximal electroshock-induced seizure at 100 mg/kg, ip measured after 0.5 hr. Format: functional, organism-based. Further details: dose 100 mg/kg.
Data set [5] concerns Rattus norvegicus. Put plainly: Neurotoxicity against Rattus norvegicus Wistar (rat) assessed as inability to maintain equilibrium on rod at 30 mg/kg, po measured after 4 hr by rotarod test. As to conditions: in vivo. It counts as toxicity, organism-based. Further details: dose 30 mg/kg, route oral.
For data set [6], the system named is Rattus norvegicus. Put plainly: Neurotoxicity against Rattus norvegicus Wistar (rat) assessed as inability to maintain equilibrium on rod at 30 mg/kg, po measured after 0.5 hr by rotarod test. Format: toxicity, organism-based. As to conditions: in vivo. Further details: dose 30 mg/kg, route oral.
Data set [7] deals with Rattus norvegicus. Put plainly: Anticonvulsant activity in Rattus norvegicus Wistar (rat) assessed as reduction in maximal electroshock-induced seizures at 30 mg/kg, po measured after 4 hr. It counts as functional, organism-based. Further details: dose 30 mg/kg.
Data set [8] relates to Rattus norvegicus. Put plainly: Anticonvulsant activity in Rattus norvegicus Wistar (rat) assessed as reduction in maximal electroshock-induced seizures at 30 mg/kg, po measured after 0.5 hr. It counts as functional, organism-based. Further details: dose 30 mg/kg.
Data set [9] relates to Mus musculus. Briefly: Neurotoxicity against Mus musculus Swiss albino (mouse) assessed as inability to maintain equilibrium on rod at 30 to 300 mg/kg, ip measured after 4 hr by rotarod test. Format: toxicity, organism-based. Further details: dose 30-300 mg/kg, route intraperitoneal. Conditions: in vivo.
In data set [10] the test system is Rattus norvegicus. Briefly: Presynaptic agonist activity at 5HT1A receptor in Rattus norvegicus Wistar (rat) assessed as change in rectal temperature at 20 mg/kg, ip measured after 120 min (reference value: 0.0 +/- 0.1 degC). Format: functional, organism-based. Further details: dose 20 mg/kg.
The test system of data set [11] is Rattus norvegicus. Briefly: Presynaptic agonist activity at 5HT1A receptor in Rattus norvegicus Wistar (rat) assessed as change in rectal temperature at 10 mg/kg, ip measured after 120 min (reference value: 0.0 +/- 0.1 degC). Further details: dose 10 mg/kg. It counts as functional, organism-based.
The test system of data set [12] is Rattus norvegicus. Put plainly: Presynaptic agonist activity at 5HT1A receptor in Rattus norvegicus Wistar (rat) assessed as change in rectal temperature at 20 mg/kg, ip measured after 90 min (reference value: -0.2 +/- 0.1 degC). Format: functional, organism-based. Further details: dose 20 mg/kg.
Data set [13] concerns Rattus norvegicus. Put plainly: Presynaptic agonist activity at 5HT1A receptor in Rattus norvegicus Wistar (rat) assessed as change in rectal temperature at 10 mg/kg, ip measured after 90 min (reference value: -0.2 +/- 0.1 degC). It counts as functional, organism-based. Set-up: dose 10 mg/kg.
Data set [14] concerns Rattus norvegicus. Briefly: Presynaptic agonist activity at 5HT1A receptor in Rattus norvegicus Wistar (rat) assessed as change in rectal temperature at 20 mg/kg, ip measured after 60 min (reference value: 0.0 +/- 0.1 degC). It counts as functional, organism-based. Further details: dose 20 mg/kg.
In data set [15] the test system is Rattus norvegicus. Briefly: Presynaptic agonist activity at 5HT1A receptor in Rattus norvegicus Wistar (rat) assessed as change in rectal temperature at 10 mg/kg, ip measured after 60 min (reference value: 0.0 +/- 0.1 degC). Set-up: dose 10 mg/kg. It counts as functional, organism-based.
Data set [16] relates to Rattus norvegicus. Put plainly: Presynaptic agonist activity at 5HT1A receptor in Rattus norvegicus Wistar (rat) assessed as change in rectal temperature at 20 mg/kg, ip measured after 30 min (reference value: -0.1 +/- 0.1 degC). It counts as functional, organism-based. Set-up: dose 20 mg/kg.
Data set [17] has as its system Rattus norvegicus. Briefly: Presynaptic agonist activity at 5HT1A receptor in Rattus norvegicus Wistar (rat) assessed as change in rectal temperature at 10 mg/kg, ip measured after 30 min (reference value: -0.1 +/- 0.1 degC). Set-up: dose 10 mg/kg. Format: functional, organism-based.
The subject of data set [18] is Mus musculus. Put plainly: Binding affinity to 5HT2A receptor in ip dosed Mus musculus Swiss albino (mouse) assessed as effect on +/-DOI-induced head twitching administered 60 min prior to +/-DOI-challenge measured for 20 min. It counts as functional, organism-based.
The subject of data set [19] is Rattus norvegicus. Briefly: Postsynaptic agonist activity at 5HT1A receptor in Rattus norvegicus Wistar (rat) assessed as increase in lower lip retraction at 10 to 20 mg/kg, ip measured after 15 min. It counts as functional, organism-based.
In data set [20] the test system is Mus musculus. Put plainly: Anticonvulsant activity in Mus musculus Swiss albino (mouse) assessed as reduction in maximal electroshock-induced seizure at 300 mg/kg, ip measured after 4 hr. Format: functional, organism-based. Set-up: dose 300 mg/kg.
For data set [21], the system named is Mus musculus. Briefly: Anticonvulsant activity in Mus musculus Swiss albino (mouse) assessed as reduction in maximal electroshock-induced seizure at 30 to 300 mg/kg, ip measured after 0.5 hr. Format: functional, organism-based.
Data set [22] deals with Mus musculus. Briefly: Neurotoxicity against Mus musculus Swiss albino (mouse) assessed as inability to maintain equilibrium on rod at 300 mg/kg, ip measured after 4 hr by rotarod test. Format: toxicity, organism-based. Set-up: dose 300 mg/kg, route intraperitoneal. Conditions: in vivo.
The subject of data set [23] is Mus musculus. Put plainly: Neurotoxicity against Mus musculus Swiss albino (mouse) assessed as inability to maintain equilibrium on rod at 100 mg/kg, ip measured after 0.5 hr by rotarod test. It counts as toxicity, organism-based. Set-up: dose 100 mg/kg, route intraperitoneal. As to conditions: in vivo.
For data set [24], the system named is Mus musculus. Briefly: Anticonvulsant activity in Mus musculus Swiss albino (mouse) assessed as reduction in maximal electroshock-induced seizure at 30 mg/kg, ip measured after 4 hr. Further details: dose 30 mg/kg. It counts as functional, organism-based.
The subject of data set [25] is Mus musculus. Put plainly: Antagonist activity at 5HT2A receptor in ip dosed Mus musculus Swiss albino (mouse) assessed as inhibition of +/-DOI-induced head twitching administered 60 min prior to +/-DOI-challenge measured for 20 min. As to conditions: read-out: ID50 (the source's name). It counts as functional.
Data set [26] has as its system Rattus norvegicus. Put plainly: Postsynaptic antagonist activity at 5HT1A receptor in Rattus norvegicus Wistar (rat) assessed as inhibition of 8-OH-DPAT-induced lower lip retraction at 10 to 20 mg/kg, ip administered 45 min prior to 8-OH-DPAT-challenge measured after 15 min. It counts as functional, organism-based.
Data set [27] relates to Mus musculus. Briefly: Anticonvulsant activity in Mus musculus Swiss albino (mouse) assessed as reduction in maximal electroshock-induced seizure at 30 mg/kg, ip measured after 0.5 hr. Format: functional, organism-based. Further details: dose 30 mg/kg.
Data set [28] relates to Mus musculus. Briefly: Neurotoxicity against Mus musculus Swiss albino (mouse) assessed as inability to maintain equilibrium on rod at 100 mg/kg, ip measured after 4 hr by rotarod test. It counts as toxicity, organism-based. Set-up: dose 100 mg/kg, route intraperitoneal. Conditions: in vivo.
Data set [29] concerns Rattus norvegicus. Put plainly: Presynaptic antagonist activity at 5HT1A receptor in Rattus norvegicus Wistar (rat) assessed as change in rectal temperature at 0.1 mg/kg, sc measured after 90 min (reference value: -0.2 +/- 0.1 degC). It counts as functional, organism-based. Set-up: dose 0.1 mg/kg.
Data set [30] concerns Rattus norvegicus. Briefly: Presynaptic antagonist activity at 5HT1A receptor in Rattus norvegicus Wistar (rat) assessed as change in rectal temperature at 0.1 mg/kg, sc measured after 60 min (reference value: 0.0 +/- 0.1 degC). Format: functional, organism-based. Further details: dose 0.1 mg/kg.
For data set [31], the system named is Rattus norvegicus. Put plainly: Antagonist activity at 5HT1A receptor in Rattus norvegicus Wistar (rat) assessed as change in rectal temperature at 0.1 mg/kg, sc measured after 30 min (reference value: -0.1 +/- 0.1 degC). Format: functional, organism-based. Further details: dose 0.1 mg/kg.
Data set [32] relates to Rattus norvegicus. Put plainly: Postsynaptic antagonist activity at 5HT1A receptor in Rattus norvegicus Wistar (rat) assessed as inhibition of 8-OH-DPAT-induced lower lip retraction at 0.1 mg/kg, sc administered 45 min prior to 8-OH-DPAT-challenge measured after 15 min. It counts as functional, organism-based. Further details: dose 0.1 mg/kg.
Data set [33] has as its system Rattus norvegicus. Briefly: Presynaptic antagonist activity at 5HT1A receptor in Rattus norvegicus Wistar (rat) assessed as change in rectal temperature at 0.1 mg/kg, sc measured after 120 min (reference value: 0.0 +/- 0.1 degC). Format: functional, organism-based. Set-up: dose 0.1 mg/kg.

Structures are written as SMILES. Active and inactive are the calls of the source. The calls are words filed in the database; no cut-off is given here.

For `COc1ccc(NCCN2C(=O)NC(c3ccccc3)(c3ccccc3)C2=O)cc1`, the Activity entry with Mus musculus [1], in the data set on Rattus norvegicus [5], in the data set on Rattus norvegicus [6] and with Mus musculus [9] was “Non-toxic” throughout. In addition, the outcome in the data set with Mus musculus [2], in the data set on Mus musculus [3], in the data set on Mus musculus [4] and in the data set on Rattus norvegicus [19] was Active. Moreover, the result in the data set with Rattus norvegicus [7], in the data set on Rattus norvegicus [8] and with Mus musculus [18] was inactive. Also, the deltaT in the data set with Rattus norvegicus [10] is -1.3 °C; in the data set on Rattus norvegicus [11], -0.6 °C; in the data set with Rattus norvegicus [12], -1.8 °C; in the data set on Rattus norvegicus [13] it was -0.8 °C; in the data set on Rattus norvegicus [14] it was -1.5 °C; with Rattus norvegicus [15] it was -0.6 °C. Also, the deltaT with Rattus norvegicus [16] is -1.2 °C; in the data set with Rattus norvegicus [17] it was -0.5 °C.
In the case of `Cc1ccc(N2CCN(CCN3C(=O)NC(c4ccccc4)(c4ccccc4)C3=O)CC2)cc1`, the outcome with Mus musculus [20] was Active. In addition, the result with Mus musculus [21] was inactive. Also, the Activity result with Mus musculus [22] and in the data set on Mus musculus [23] was “Toxic” in each case.
On to `O=C1OC(c2ccccc2)C(=O)N1CCNc1ccc(Cl)cc1` (configuration not stated), for which the Activity result with Mus musculus [1], in the data set with Rattus norvegicus [5], in the data set with Rattus norvegicus [6] and with Mus musculus [9] was “Non-toxic” in each case. In addition, the outcome in the data set on Mus musculus [24], in the data set on Mus musculus [4], in the data set on Rattus norvegicus [7] and with Rattus norvegicus [8] was Active. The deltaT with Rattus norvegicus [10] was -1.3 °C; with Rattus norvegicus [11], -0.5 °C; with Rattus norvegicus [12], -1.5 °C; in the data set with Rattus norvegicus [13], -0.7 °C; in the data set on Rattus norvegicus [14], -1.3 °C; in the data set on Rattus norvegicus [15], -0.5 °C. Besides, the deltaT with Rattus norvegicus [16] is -1.2 °C; in the data set on Rattus norvegicus [17] it was -0.2 °C. Besides, in the data set on Mus musculus [25], the ED50 came out at 8 mg/kg. In the data set on Rattus norvegicus [26], the inhibition entry is “Active”.
`O=C1NC(=O)C(c2ccccc2)(c2ccccc2)N1` [PHENYTOIN]: the outcome in the data set with Mus musculus [24], in the data set with Mus musculus [27], in the data set with Rattus norvegicus [7] and with Rattus norvegicus [8] was Active. Moreover, the Activity entry is reported as “Non-toxic” in the data set with Rattus norvegicus [5], “Non-toxic” with Rattus norvegicus [6], “Toxic” in the data set with Mus musculus [28] and “Toxic” in the data set on Mus musculus [23].
With `COc1ccccc1N1CCN(CCN(C(=O)C2CCCCC2)c2ccccn2)CC1`, the deltaT with Rattus norvegicus [29] was 0.1 °C; with Rattus norvegicus [30], 0.2 °C; with Rattus norvegicus [31] it was 0.2 °C; with Rattus norvegicus [33], 0.2 °C. Moreover, the inhibition entry with Rattus norvegicus [32] is “Active”.
As for `O=C1OC(c2ccccc2)C(=O)N1CCNc1ccc(O)cc1` (configuration not stated), the Activity entry in the data set with Mus musculus [1], with Rattus norvegicus [5], in the data set on Rattus norvegicus [6] and in the data set with Mus musculus [9] was “Non-toxic” in each case. Besides, the outcome in the data set on Mus musculus [24], in the data set with Mus musculus [4], in the data set on Rattus norvegicus [7] and in the data set on Rattus norvegicus [8] was Active. Besides, the deltaT in the data set on Rattus norvegicus [10] is -1.1 °C; with Rattus norvegicus [11], -0.6 °C; in the data set on Rattus norvegicus [12], -1.6 °C; with Rattus norvegicus [13], -0.7 °C; in the data set on Rattus norvegicus [14], -1.2 °C; in the data set on Rattus norvegicus [15], -0.6 °C. Also, the figures for the deltaT in the data set on Rattus norvegicus [16] and in the data set with Rattus norvegicus [17] were -1 °C and -0.4 °C, respectively. Further, the ED50 in the data set with Mus musculus [25] stood at 11 mg/kg. In the data set on Rattus norvegicus [26], the inhibition entry was “Active”.

Source of the values: ChEMBL document CHEMBL3044586, “Design, synthesis, and anticonvulsant screening of some substituted piperazine and aniline derivatives of 5-phenyl-oxazolidin-2,4-diones and 5,5-diphenylimidazolidin-2,4 diones” (Med Chem Res, 2012).
